Entries after “also recorded” stand apart in the source; their conditions may differ. Where a SMILES comes first, the peptide text is derived from it. [ ]: non-standard residue; d: D form. Aib = CC(C)(N)C(=O)O
Tests used:
cerebellar microexplants = test: Neuronal survival of cerebellar microexplants exposed to the neurotoxin 3-NP (cells having neurites counted); type: cell-based, Wistar rat; conditions: for neuroprotection after exposure to 3-NP, larger set of data: study of 6 in each group, FIG. 4
Method: (§1) Laminated cerebellar cortices of the two hemispheres were explanted from a P3, P4, P7 or P8 Wistar rat, cut into small pieces in GBSS with 0.65% D(+)glucose solution, and triturated by a 0.4 mm gauge needle and subsequently pressed through a 125 μm pore size sieve. The obtained microexplants were centrifuged (60×g) 2 times for a medium exchange into serum-free BSA-supplemented START V-medium (Biochrom). Finally, the microexplants were reconstituted in 500 μl STARTV-medium. For culturing, 38 μl of the cell suspension was incubated for 1 hour on a poly-D-lysine-coated cover slip in a 35 mm Petri dish under an atmosphere comprising 5% CO2 in air and 100% humidity at 34° C. Subsequently, the injuring toxins (as described below), NRP analogues and 1 ml of STARTV-medium were added, and the cultures were evaluated after 2-3 days of culture.
(§2) General methods for toxicological and drug administration experiments were designed such that 1/100 parts of toxin and neuroprotective drug were administered simultaneously to the freshly prepared cerebellar microexplants. Glutamate was prepared as a 50 mM stock solution in MilliQ water while 50 mM 3-nitropropionic acid (3-NP) was pH-adjusted (pH 6.8-7.2) in MilliQ water. The concentrations of the oxidative stress inducing toxin, 3-nitropropionic acid (3-NP), and the excitotoxin, glutamate, in the assay were at concentrations of 0.5 mM each. Lyophilized NRP peptides were reconstituted in PBS or 100 μg/ml human transferrin as a 10 μM stock solution. Subsequently, serial dilutions were made. Cerebellar microexplants were cultivated for 48-72 hours at 34° C., 5% CO2 in air and 100% humidity before they were fixed by increasing amounts of paraformaldehyde (0.4%, 1.2%, 3% and 4%—each treatment 2-3 min).
Using the toxins described above, cerebellar explants were exposed for 24 hours, at the beginning of culturing to dilutions of NRP (survival assay) or NRP and 0.1 μM BrdU (proliferation assay). Subsequently, 80% of the medium was changed without addition of new toxins and NRPs. The cerebellar cultures were fixed as described above after 3 days in vitro. The detection of the incorporated BrdU level is performed as described previously.
For statistical analysis of survival, four fields (each field having an area of 0.65 mm^2) of each fixed cerebellar culture with the highest cell densities were chosen, and cells displaying neurite outgrowth were counted (survival assay).
We exposed cell cultures to vehicle alone (open column) the neurotoxin 3-NP alone (shaded column) to 3-NP plus different concentrations of SEQ ID NO:5 (hatched columns) or to 3-NP plus different concentrations of a non-substituted NRP, SEQ ID NO:1 (dark shaded column). We then counted the numbers of cells having neurites as an indicator of neuronal cell survival.

cerebellar explants = test: Storage stability: peptide stored 9 weeks at −20° C. or −4° C., then tested for neuroprotection against 3-NP in cerebellar explants; type: cell-based, Wistar rat; conditions: for stability in storage (retention of neuroprotective activity): 9 weeks, −4° C. compared with −20° C.; for neuroprotective effect against 3-NP after storage at −4° C.: stored 9 weeks at −4° C.; for neuroprotective effect against 3-NP after storage at −4° C. / neuroprotective effect against 3-NP after storage at −20° C.: four concentrations 10^−13 M to 10^−10 M; for neuroprotective effect against 3-NP after storage at −20° C.: stored 9 weeks at −20° C.
Method: as §1, §2
To determine the stability of NRPs of this invention in storage, we carried out a series of studies using SEQ ID NO:1. In this study, we synthesized SEQ ID NO:1 and then stored the peptide at temperatures of either −20° C. or −4° C. for nine (9) weeks. We then tested the NRP for efficacy in protecting cerebellar neurons against the neurotoxic effect of 3-NP as described above. Cerebellar explants were treated with vehicle alone (open column), the neurotoxic agent 3-NP alone (light stippled column), or 3-NP plus four concentrations of SEQ ID NO:1 that had been stored for 9 weeks at −20° C., or at −4° C.
In this study, we determined the stability of a substituted NRP, SEQ ID NO:5, in different storage conditions and at different concentrations as with Example 3 above. We synthesized SEQ ID NO:5 and then stored the peptide for 9 weeks at a temperature of either −20° C. or −4° C. We then tested the efficacy of SEQ ID NO:5 in decreasing the neurotoxic effect of 3-NP as described in Examples 2 and 3 above.

[1] = test system: rats with peripheral neuropathy induced by pyridoxine; test: Pyridoxine-induced peripheral neuropathy, precision beam walk motor deficit score; type: in vivo; conditions: for motor deficits (beam walking score) versus vehicle: Experiment I: pyridoxine 800 mg/kg/day 8 days, four days after cessation of pyridoxine
Method: Male Sprague-Dawley rats were used and were weighed 278-349 g at the commencement of intoxication with pyridoxine chloride. Before intoxication, rats were habituated to walk across a beam at daily intervals for a week.
Experiment I: Rats were administered 400 mg/kg pyridoxine chloride dissolved in sterile distilled water adjusted to neutral pH intraperitoneally (i.p) twice daily for 8 days and concurrently the peptide having the sequence SEQ ID NO:5 was administered i.p. for at total of 10 days.
Experiment II: Rats were administered a higher dose of pyridoxine (1200 mg/kg/day) over a shorter period of time. Pyridoxine chloride dissolved in sterile distilled water adjusted to neutral pH was administered i.p. to the rats at a dose of 600 mg/kg twice daily for 4 days. Concurrently the peptide having the sequence SEQ ID NO:5 was administered for 4 days. On day 5, rats were tested for motor deficits.
Motor deficits after pyridoxine intoxication and effects of SEQ ID NO:5 were analyzed using a precision beam walk. Seven subsequent foot steps across the 1.5 m long beam were videotaped and according to the positioning of the foot tarsus, these steps were scored between 1 to 4 (1—hind leg tarsus above the beam median; 2—tarsus was touching the upper half of beam medium; 3-tarsus was touching the lower half of beam median and 4—tarsus below the beam median). The score results of all seven steps were added together. A score of 30 was given if the animal was only able to stand on the beam but was unable to walk. In the event of inability to stand on the beam a score of 32 was awarded.
Experiment I: The two concentrations tested for SEQ ID NO:5 were 40 ng/kg/day and 4 μg/kg/day.
Experiment II: Saline and SEQ ID NO:5 at a dose of 4 μg/kg/day were tested.
Motor deficit data were assessed by two-way analysis of variance and Bonferroni post-hoc test. Statistical significance was concluded if p<0.05 between drug treatment cohorts and vehicle treatment.

[2] = test system: SOD-1 mutant (ALS) transgenic mice; test: Survival of SOD-1 mutant (ALS) transgenic mice, Kaplan-Meier; type: in vivo
Source text: In this series of studies, we examined the effects of SEQ ID NO:5 on mice having a genetic defect (SOD-1) that produces a motor neuron disease similar to that in humans with ALS Animals with this disorder show a progressive loss of motor coordination over time, and ultimately die prematurely of the disease. This animal system is useful in studying effects of agents potentially useful in treating ALS in human beings. Thus, results obtained are highly predictive of results obtained in humans with ALS.
Mice were randomly allocated to receive either vehicle or SEQ ID NO:5 from the point of disease onset onwards.
SEQ ID NO:5 treatment (40 μg/kg, given 1/day, i.p. (FIG. 8A) or 0.4 μg/kg, given 1/day, i.p. (FIG. 8B)) was started at the day of onset of the disease.

[3] = test system: mouse model of experimental autoimmune encephalitis (EAE); test: MOG-induced experimental autoimmune encephalitis (EAE) model of multiple sclerosis, clinical score of neurological impairment; type: in vivo, mice, strain C57B1/6J; conditions: 0.1 μg peptide/animal (4.16 μg/kg) i.p. daily for 14 days from day 17 after MOG-immunization; outcome 37 days after first treatment; p<0.01 versus treatment day 1 score; FIG. 5

With “AcNH-RRAAPGRAGG^11-NH2 (Ac-RRAAPGRAGG-NH2) [SEQ ID NO: 7]” the “neuroprotection in in vitro model of neural toxicity induced by 3-NP” value (from here on “neuroprotection in in vitro model”) (cerebellar microexplants; 3-NP) was “neuroprotective”.
With `C[C@H](NC(=O)[C@H](CCCNC(=N)N)NC(=O)[C@H](CCCNC(=N)N)NC(=O)CN)C(=O)N[C@@H](C)C(=O)N1CCC[C@H]1C(=O)NCC(=O)N[C@@H](CCCNC(=N)N)C(=O)NC(C)(C)C(=O)NCC(=O)NCC(N)=O` [SEQ ID NO:5, NH2-G^1RRAAPGR-Aib-GG^11-NH2] (H-GRRAAPGR[Aib]GG-NH2) the “neuroprotection compared with the unsubstituted NRP” value (cerebellar microexplants; 3-NP, FIGS. 1 and 4) was “more neuroprotective than the unsubstituted NRP”, the “concentration of maximal effect on 3-NP-induced neurotoxicity” value (cerebellar microexplants; FIG. 1, n=4) was “about 100 fM” and the “threshold concentration for decrease of 3-NP-induced neurotoxicity” value (cerebellar microexplants; FIG. 1, n=4) was “below 1 fM”. For the same compound, the “decrease of 3-NP-induced neurotoxicity (cells having neurites)” value (cerebellar microexplants; different concentrations, 0.5 mM 3-NP, p<0.001, n=4 each, FIG. 1) was “decreased 3-NP-induced neurotoxicity in a concentration dependent fashion”, the “neuroprotection after exposure to 3-NP, larger set of data” value (cerebellar microexplants) was “protect neurons from dying” and the “stability in storage (retention of neuroprotective activity)” value (cerebellar explants) was “not statistically different; also recorded: stable under storage conditions”. The “neuroprotective effect against 3-NP after storage at −4° C.” value (cerebellar explants) was “retained its neuroprotective effect”, the “neuroprotective effect against 3-NP after storage at −20° C.” value (cerebellar explants) was “neuroprotective effects similar to those found for SEQ ID NO:1” and the “motor deficits (beam walking score) versus control group” value ([1]; Experiment I: peptide 4 μg/kg/day, day 16 after start of pyridoxine-intoxication, p<0.05, FIG. 6) was “significantly less motor deficits than the control group”. The “motor deficits (beam walking score) versus vehicle” value ([1]; peptide 40 ng/kg/day i.p. 10 days, p<0.05, FIG. 6) was “attenuated motor deficits”, the “motor deficits (beam walking score) versus vehicle” value ([1]; peptide 4 μg/kg/day i.p. 10 days, p<0.01, FIG. 6) was “attenuated motor deficits” and the “motor deficits (beam walking score) versus control group” value ([1]; Experiment II: pyridoxine 1200 mg/kg/day 4 days, peptide 4 μg/kg/day 4 days, day 5, p<0.001, FIG. 7) was “highly significantly attenuation of motor deficits”. For the same compound, the tolerability ([1]; rats, 4 μg/kg/day) was “well tolerated”, the “longest survival of treated mice” value ([2]; Study 1, 40 μg/kg 1/day i.p., vehicle all dead by day 143, FIG. 8A) was “up to 156 days” and the “day at which treated mice began dying” value ([2]; Study 1, 40 μg/kg 1/day i.p., vehicle day 120, FIG. 8A, p<0.01) was 131 days. For the same compound, the “longest survival of treated mice” value ([2]; Study 2, 0.4 μg/kg 1/day i.p., vehicle all dead at day 154, FIG. 8B) was “up to 189 days”, the “day at which treated mice began to die” value ([2]; Study 2, 0.4 μg/kg 1/day i.p., vehicle day 120, FIG. 8B) was 125 days and the “lifetime of mice suffering from the ALS-like disorder” value ([2]; two studies, 40 μg/kg or 0.4 μg/kg 1/day i.p. from disease onset, FIGS. 8A and 8B) was “significant extension of lifetime”.
With H-GR[dR]AAPGRAGG-NH2 [SEQ ID NO: 8] the “neuroprotection in in vitro model” value (cerebellar microexplants; 3-NP) was “neuroprotective”.
“NH2-G^1RRAAPGRANG^11-NH2 (H-GRRAAPGRANG-NH2) [SEQ ID NO: 6]” was tested, and the “neuroprotection in in vitro model” value (cerebellar microexplants; 3-NP) was “neuroprotective”.
In the case of “NH2—REGRRDAPGRAGG-NH2 (H-REGRRDAPGRAGG-NH2) [SEQ ID NO: 12]”, the “therapeutic effect on EAE clinical score (severity of motoric impairment)” value [3] is reported as “significant therapeutic effect”.
In the case of “NH2-G^1RRAAPGRAGG^11-NH2 (H-GRRAAPGRAGG-NH2; listed as Homo sapiens) [SEQ ID NO:1, un-substituted comparator, reference compound]”, the “decrease of neurotoxic effects of 3-NP (cells having neurites)” value (cerebellar microexplants; peptide at 10 fM or 1 pM, 0.5 mM 3-NP, p<0.001, n=4, FIG. 1) is reported as “significantly decreased the neurotoxic effects of 3-NP”, the “neuroprotection after exposure to 3-NP, larger set of data” value (cerebellar microexplants) is reported as “protect neurons from dying” and the “stability in storage (retention of neuroprotective activity)” value (cerebellar explants) is reported as “loses activity over the 9-week period”. The “neuroprotective effect against 3-NP after storage at −4° C.” value (cerebellar explants) was “little decrease in neurotoxic effect of 3-NP” and the “neuroprotective effect against 3-NP after storage at −20° C.” value (cerebellar explants) was “neuroprotective effects at all concentrations tested”.

Reference: patent publication US9040485B2, “Synthetic analogues of neural regeneration peptides” (Curonz Holdings Company Limited, priority 2007, dated 2015)
